According to patent EP0108147B1, “Use of a protoberberine alkaloid and composition containing same” (MAROKO, Peter R., priority 1982, dated 1983):

System: dogs
Assay: Protocol RK, single dose: dose response on systemic arterial pressure and heart rate
Format: in vivo
Settings: for average fall in mean arterial pressure: 90 minutes after injection
Protocol: In 4 groups of dogs instrumented as in the last series of experiments (Protocol RK) the effects of increasing dose response on systemic arterial pressure was examined. The only difference from that protocol was that only one dose of berberine (as opposed to two) was administered.
The effects on the measured parameters is dose responsive. In four groups of dogs, the changes in blood pressure were analyzed. The dosage administered was7.5,15,30 and 70 mg/Kg. It was observed that generally blood pressure drop was most marked in the first 5 minutes. After 90 minutes following the injection (when the experiment wad discontinued), the average fall in mean arterial pressure in the group which received 15 mg/Kg was 19 mmHg; in the group that received 30 mg/Kg it was 37 mmHg and in the group that received 70 mg/Kg it was 63 mmHg.

**Q.** Which “decrease of heart rate” value (7.5 mg/Kg) does the source give for `COc1ccc2cc3[n+](cc2c1OC)CCc1cc2c(cc1-3)OCO2` [berberine] here?
**A.** Its value is 20 beats/min.

**Q.** And the “decrease of heart rate” value (15 mg/Kg)?
**A.** The value was 16 beats/min.

**Q.** And the “average fall in mean arterial pressure” value (15 mg/Kg)?
**A.** Its value is 19 mmHg.

**Q.** And the “average fall in mean arterial pressure” value (30 mg/Kg)?
**A.** The value was 37 mmHg.

**Q.** And the “decrease of heart rate” value (35 mg/Kg)?
**A.** Its value is 40 beats/min.

**Q.** And the “decrease of heart rate” value (70 mg/Kg)?
**A.** Its value is 103 beats/min.

**Q.** And the “average fall in mean arterial pressure” value (70 mg/Kg)?
**A.** Its value is 63 mmHg.

**Q.** What about the primary arrhythmias (7.5 to 70 mg/Kg) of the same compound?
**A.** The primary arrhythmias was “No primary arrhythmias were obtained”.
